Article PMC12005767 (Advanced Science, 2025)
Where two headings read alike, the source gives them in different places.

Legend:
HDAC1 = biological target: T1, HDAC1 (Homo sapiens, UniProt Q13547); assay: In vitro HDACs inhibition fluorescence assay, HDAC1; type: biochemical; conditions: mean ± SEM
T1 construct: purchased BPS Bioscience
Description: In Vitro HDACs Inhibition Fluorescence Assay: For the inhibitory activity against HDAC1‐10, enzymes were also procured from BPS Bioscience. The in vitro […] inhibition assays were conducted following the established method described previously.^[ [45] ^] The working concentrations of HDAC1‐10 were 4 × 10^−9 M. The fluorogenic substrate of HDAC1, 2, 3, and 6 was Boc‐Lys (acetyl)‐AMC, and the substrate of HDAC4, 5, 7, 8, 9, and 10 was Boc‐Lys (trifluoroacetyl) AMC. The developer solution consists of 30 mg mL^−1 trypsin and 5 × 10^−6 M TSA. A standing period of 30 min was sufficient before assessing the fluorescence intensity.

[1] = Pharmacokinetic study in ICR mice (i.v. and p.o.); type: in vivo; conditions: male, mouse, plasma; for MRT inf: read-out: MRT0-inf
Description: Pharmacokinetics study was performed by Medicilon Preclinical Research (Shanghai) LLC. Male ICR mice, which were purchased from Sino‐British SIPPR Lab Animal Ltd., Shanghai (25–30 g, 14 weeks of age), were fasted overnight before administration and resumed food 6 h after initial plasma sampling. Compound was dissolved in solution containing 10% DMAC, 40% PEG‐400, and 50% water and was delivered to three animals by intravenous bolus injection (i.v.) and oral gavage (p.o.) at a dose of 5 and 20 mg kg^−1 with a volume of 5 and 10 mL kg^−1, respectively. Blood samples were collected at the following time points: 5, 15, 30 min and 1, 2, 4, 6, 8, and 24 h post dose administration. The blood samples were taken via submandibular vein, 30 µL/time point.
Sample were placed in tubes containing K2‐EDTA and stored on ice until centrifuged. The blood samples were centrifuged at 6800 g for 6 min at 2–8 °C within 1 h after collected and stored frozen at ≈−80 °C. A 20 µL plasma sample was treated with 400 µL of methanol containing 10 ng mL^−1 IS to precipitate the protein. The mix was then vortexed for a minute and centrifuged at 18 000 g for 7 min. The resulting supernatant (400 µL) was transferred to a 96‐well plate, and an injection of 1 µL of this supernatant was used for the LC‐MS/MS analysis. The animal protocols used in this study were approved by the Preclinical R&D Unit of Medicilon Institutional Animal Care and Use Committee (IACUC) (26030‐21002) and operated in accordance with the Guide for the Care and Use of Laboratory Animals published by the National Institutes of Health (NIH).

[2] = ICR, po, 20 mg/kg, p.o. at 20 mg/kg

T1 sequence (Q13547 whole entry): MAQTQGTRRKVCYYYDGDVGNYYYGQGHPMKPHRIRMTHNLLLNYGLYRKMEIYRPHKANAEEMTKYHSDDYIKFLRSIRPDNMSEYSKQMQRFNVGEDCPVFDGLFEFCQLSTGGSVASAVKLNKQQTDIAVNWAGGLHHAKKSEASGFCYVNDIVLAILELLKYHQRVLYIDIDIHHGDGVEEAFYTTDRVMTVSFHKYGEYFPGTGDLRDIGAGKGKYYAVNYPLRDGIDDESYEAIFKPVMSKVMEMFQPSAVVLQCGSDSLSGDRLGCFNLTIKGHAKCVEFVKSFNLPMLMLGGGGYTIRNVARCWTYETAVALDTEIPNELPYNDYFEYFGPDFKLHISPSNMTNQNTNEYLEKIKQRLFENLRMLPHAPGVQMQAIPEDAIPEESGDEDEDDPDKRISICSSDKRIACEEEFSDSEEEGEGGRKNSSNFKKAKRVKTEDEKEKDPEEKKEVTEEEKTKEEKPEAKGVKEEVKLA

## CCCCCOCCCCCNNC(=O)c1ccc(CNC(=O)c2ccccc2)cc1 [B6]
HDAC1
  IC50: > 10 µM
[1]; [2]
  AUC(0-inf): 3480 ng·h/mL
  Cmax: 2610 ng/mL
[1]; iv, i.v. at 5 mg/kg
  half-life: 3.8 h
  clearance: 39.5 ± 13.5 mL/min/kg
  MRT inf: 0.23 ± 0.02 h
[1]; oral, p.o. at 20 mg/kg vs i.v. at 5 mg/kg, read-out: oral bioavailability (F%)
  bioavailability: 34.5%
[1]; po, p.o. at 20 mg/kg
  MRT inf: 2.6 ± 0.8 h
  half-life: 2.3 h
